In ChEMBL document CHEMBL5604063, “ASAP - DENV-2 NS2B-NS3 protease fluorescence dose response” (2024):

Target: Genome polyprotein (dengue virus type 2, UniProt P29990)
Assay type: functional, Thailand/16681/1984

Sequence of Genome polyprotein (P29990 1346-1475 limits assumed): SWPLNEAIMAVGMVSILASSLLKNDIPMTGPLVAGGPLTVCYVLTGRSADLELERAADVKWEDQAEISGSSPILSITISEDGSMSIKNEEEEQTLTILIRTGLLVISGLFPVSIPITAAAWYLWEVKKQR
Sequence of Genome polyprotein (P29990 1476-2093 limits assumed): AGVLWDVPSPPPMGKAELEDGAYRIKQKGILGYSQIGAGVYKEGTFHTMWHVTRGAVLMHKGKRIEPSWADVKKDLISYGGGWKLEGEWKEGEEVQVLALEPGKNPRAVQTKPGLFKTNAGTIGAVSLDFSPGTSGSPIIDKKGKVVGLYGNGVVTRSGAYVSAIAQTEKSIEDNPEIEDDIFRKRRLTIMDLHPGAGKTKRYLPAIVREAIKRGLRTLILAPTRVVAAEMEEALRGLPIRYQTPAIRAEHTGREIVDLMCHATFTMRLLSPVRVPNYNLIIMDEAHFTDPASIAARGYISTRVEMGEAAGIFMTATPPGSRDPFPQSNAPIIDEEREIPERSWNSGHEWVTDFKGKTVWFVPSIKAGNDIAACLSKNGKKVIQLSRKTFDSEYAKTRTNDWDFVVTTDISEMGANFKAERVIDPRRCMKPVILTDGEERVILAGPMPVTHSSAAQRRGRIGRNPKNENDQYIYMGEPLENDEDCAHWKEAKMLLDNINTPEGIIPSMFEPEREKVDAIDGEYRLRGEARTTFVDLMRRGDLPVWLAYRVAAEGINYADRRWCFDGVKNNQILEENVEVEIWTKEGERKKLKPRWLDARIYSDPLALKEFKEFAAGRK

| SMILES | IC50 [µM] |
| --- | --- |
| c1ccc2nc(SCc3cn4ccccc4n3)cnc2c1 | > 99.5 |
| c1ccc(C2CCN(Cc3ccc4nccnc4c3)CC2)nc1 | > 99.5 |
| c1nnc(SCCCSc2nncs2)s1 | > 99.5 |
| c1ccc(COc2cccc3[nH]cc(CN4CCC(c5cscn5)CC4)c23)cc1 | > 99.5 |
| NCc1cccc(NC(=O)[C@@H](NC(=O)OCc2ccccc2)c2cccc(OC[C@H]3CCCO3)c2)c1 | > 99.5 |
| c1ccc2c(CNCc3ccc(-c4cscn4)cc3)c[nH]c2c1 | > 99.5 |
| Cn1cc(N2CCN(Cc3c[nH]c4ccccc34)CC2)cn1 | > 99.5 |
| O=C(c1cccnc1)N1CCN(Cc2c[nH]c3ccccc23)CC1 | > 99.5 |
| COc1ccc(F)cc1-c1ccc(S(=O)(=O)Nc2ccc(Cl)cc2C(N)=O)cc1 | 28.4 |
| O=c1[nH]c2cccc(N3CCN(Cc4c[nH]c5ccccc45)CC3)c2[nH]1 | > 99.5 |
| CC(=O)N[C@H](C(=O)N[C@H]1C(=O)O[C@H]1C)c1ccc(OCc2ccccc2)cc1 | > 99.5 |
| N#Cc1ccc(OCCn2nnn(-c3ccccc3)c2=O)cc1 | > 99.5 |
| O=C(Nc1cc(Cl)cc(C(=O)Nc2ncc3n2CCNC3)c1)OCc1ccccc1 | > 99.5 |
| NCc1cccc(NC(=O)[C@@H]2[C@@H]3CCCCC[C@@H]3[C@@H]2NC(=O)OCc2ccccc2)c1 | 22.2 |
| NC(=O)c1cnccc1N1CCN(Cc2c[nH]c3ccccc23)CC1 | > 99.5 |
| c1ccc(OC2CCN(Cc3c[nH]c4ccccc34)CC2)cc1 | > 99.5 |
| NCc1cccc(NC(=O)[C@@H](NC(=O)OCc2ccccc2)c2cccc(OCC3CCC3)c2)c1 | 44 |
| CN(C)Cc1nnc(NC(=O)[C@@H](NC(=O)OCc2ccccc2)c2ccc(OCc3ccccc3)cc2)s1 | > 99.5 |
| NCc1cccc(S(=O)(=O)Nc2cc(Cl)cc(NC(=O)OCc3ccccc3)c2)c1 | > 99.5 |
| NCc1ccccc1Oc1ccc(S(=O)(=O)Nc2ccc(Cl)cc2C(=O)O)cc1 | > 99.5 |
| C[C@H]1CC[C@@](Cc2nc3ccccc3[nH]2)(C(=O)Nc2cccc(CN)c2)CC1 | > 99.5 |
| CN(C)Cc1csc(NC(=O)[C@@H](NC(=O)OCc2ccccc2)c2ccc(OCc3ccccc3)cc2)n1 | > 99.5 |
| Cc1nc(COc2ccc([C@@H](NC(=O)OCc3ccccc3)C(=O)Nc3cccc(CN)c3)cc2)cs1 | > 99.5 |
| c1ccc2c(CN3CCN(c4ccncc4)CC3)c[nH]c2c1 | > 99.5 |
| O=S(=O)(c1cccnc1)N1CCN(Cc2c[nH]c3ccccc23)CC1 | > 99.5 |
| Fc1cc(F)c2[nH]cc(CN3CCC(c4cscn4)CC3)c2c1F | > 99.5 |
| O=C(Nc1cc(Cl)cc(C(=O)Nc2nc3c(s2)CCNC3)c1)OCc1ccccc1 | > 99.5 |

| SMILES | IC50 [µM] |
| --- | --- |
| COc1c(C)cc(C(=O)Nc2cccc(CN)c2)cc1NC(=O)OCc1ccccc1 | > 99.5 |
| NCc1cccc(NC(=O)Cc2cc(Cl)cc(NC(=O)OCc3ccccc3)c2)c1 | 85.8 |
| COc1ccc(CN(C)C)cc1NC(=O)[C@@H](NC(=O)OCc1ccccc1)c1ccc(OCc2ccccc2)cc1 | > 99.5 |
| Nc1ccc2ccc(B(O)O)cc2c1 | > 99.5 |
| CC(C)(C)OC(=O)Nc1cccc2[nH]cc(CN3CCC(c4cscn4)CC3)c12 | > 99.5 |
| Cn1nc2c(c1NC(=O)[C@@H](NC(=O)OCc1ccccc1)c1ccc(OCc3ccccc3)cc1)CNC2 | > 99.5 |
| Cc1c(NC(=O)OCc2ccccc2)cc(C(F)(F)F)cc1C(=O)Nc1cccc(CN)c1 | 51.4 |
| COc1ccc(F)cc1-c1ccc(S(=O)(=O)Nc2cc(Cl)cc(C(=O)O)c2)cc1 | 89.9 |
| c1ccc(COc2ccc3[nH]cc(CN4CCC(c5cscn5)CC4)c3c2)cc1 | > 99.5 |
| NC(=O)c1cc(Cl)ccc1NS(=O)(=O)c1ccc(-c2ccc(F)cc2)cc1 | 33.3 |
| NCc1cccc(NC(=O)[C@@H](NC(=O)OCc2ccccc2)c2ccc(OC[C@H]3CCCCO3)cc2)c1 | > 99.5 |
| O=C(Nc1cc(Cl)cc(C(=O)Nc2n[nH]c3c2CNC3)c1)OCc1ccccc1 | 27.2 |
| Cc1c[nH]nc1CN1CCC(c2cscn2)CC1 | > 99.5 |
| O=C(Nc1cc(Cl)cc(C(=O)Nc2ncc([C@H]3CCCN3)s2)c1)OCc1ccccc1 | > 99.5 |
| CC(C)(C)c1ccc2[nH]cc(CN3CCC(c4cscn4)CC3)c2c1 | > 99.5 |
| Brc1cccc2cn(Cc3ncccn3)nc12 | > 99.5 |
| O=C(Nc1cc(Cl)cc(C(=O)Nc2n[nH]c3c2CNC32CC2)c1)OCc1ccccc1 | 67.8 |
| O=C(Nc1cc(Cl)cc(C(=O)Nc2cccc(CO)c2)c1)OCc1ccccc1 | > 99.5 |
| CN1CCC[C@H]1COc1cccc([C@@H](NC(=O)OCc2ccccc2)C(=O)Nc2cccc(CN)c2)c1 | > 99.5 |
| Cc1ccc(CN)cc1-c1cccc([C@H](NC(=O)OCc2ccccc2)C(=O)Nc2cccc(CN)c2)c1 | 63.1 |
| O=C(NCc1ccco1)c1csc(Br)c1 | > 99.5 |
| CCc1cccc2c(CN3CCC(c4cscn4)CC3)c[nH]c12 | > 99.5 |
| Cc1cc(NC(=O)OCc2ccccc2)cc(C(=O)Nc2cccc(CN)c2)c1C | > 99.5 |
| COc1cc(Br)ccc1[C@@H](NC(=O)OCc1ccccc1)C(=O)Nc1cccc(CN)c1 | 83.9 |
| CN(C)Cc1ccc(N2CCN(Cc3c[nH]c4ccccc34)CC2)nc1 | > 99.5 |
| c1ccc(-c2c[nH]nc2CN2CCC(c3cscn3)CC2)cc1 | > 99.5 |
